Source: PubChem BioAssay AID488950 (Broad Institute, 2010)
Where “and” joins values, the source holds several entries; their conditions need not be identical. Identical values can stand only once. Records with an inconclusive call do not appear. Calls of active or inactive are those of the source.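 How the source made its calls: active means fitted half-maximal dose for growth inhibition no higher than ten times the top tested dose; inconclusive means flat curve with 30 to 70% inhibition, or poor fit; inactive means the rest.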

Tests used:
[1] = fluconazole-resistant Candida strain growth inhibitors – CaCi-8 strain, dry powder, set 4, dose response (AID 488950); settings: C. albicans CaCi-8 + fluconazole, Alamar Blue growth, 48 h; at 26 µM (top of the series)
[2] = tested on: C. albicans CaCi-8 + fluconazole, Alamar Blue growth, 48 h; experiment: as above

Row | SMILES | activity change, negative = inhibition [1] | AC50 [2]
1 | Clc1ccc2c(N3CCNCC3)ccnc2c1 | 7.46% (inactive) | 
2 | Cc1cc(N2CCN(C(=O)c3ccc(Cl)cc3)CC2)c2ccccc2n1 | 6.54% (inactive) | 
3 | CC(C)C(=O)N1CCN(c2ccnc3cc(Cl)ccc23)CC1 | -25.6% (inactive) | 
4 | COc1cccc2c(N3CCN(C(=O)c4ccc(Cl)cc4)CC3)cc(C)nc12 | -22.9% (inactive) | 
5 | O=C(c1ccc(Cl)cc1)N1CCN(c2ccncc2)CC1 | -2.65% (inactive) | 
6 | O=C(c1ccc(Cl)cc1)N1CCN(c2cc(C(F)(F)F)nc3ccccc23)CC1 | -54.5% (inactive) | 
7 | O=S(=O)(c1ccc(Cl)cc1)N1CCN(c2ccnc3cc(Cl)ccc23)CC1 | -2.18% (inactive) | 
8 | O=C(c1ccc(Cl)cc1)N1CCN(c2ccccn2)CC1 |  | 9.14 µM and 13.8 µM and 19.9 µM
9 | O=C(c1ccc(Cl)cc1)N1CCN(c2ccnc3cc(Cl)ccc23)CC1 |  | 0.179 µM and 0.6 µM
10 | O=C(c1ccc(Cl)cc1)N1CCNCC1 | 4.63% (inactive) | 
11 | COc1cccnc1N1CCN(C(=O)c2ccc(Cl)cc2)CC1 | -25% (inactive) | 
